System: RAW 264.7 cells
Test: Endotoxin induced TNF-α secretion by RAW 264.7 cells
Type: cell-based, murine
Procedure: Suppression of endotoxin-induced TNF-α secretion by a macrophage cell line RAW 264.7 was also measured (Kelly et al., Infect. Immun. 59: 4491-6 (1991)). RAW 264.7 cells secret TNF-α upon exposure to endotoxin (M. R. Ruff and G. E. Gifford, Lymphokines 2: 235-272 (1981)). […] Similar to the results of the LAL assay, the potency of LF-33 varied depending on the type of endotoxin. The LF-33 concentration needed to suppress 50% TNF-α secretion induced by endotoxin (10 ng/ml) was approximately 0.01 μM for E. coli LPS and lipid A, 0.1 μM for LPS from P. aeruginosa, and 0.5 μM for LPS from S. abortus equi and N. meningitidis.
Endotoxin induced TNF-α secretion by RAW 264.7 cells. The murine macrophage cell line RAW 264.7 was obtained from the American Type Culture Collection (ATCC, Rockville, Md.) and maintained as described previously (Jeremy, B., Immunol. Today. 16: 417-419 (1995)). The concentration of endotoxin in all buffers and media was controlled to below 0.1 EU/ml. The following protocol was essentially described before and used here with minor modifications (Kelly et al., Infect. Immun. 59: 4491-6 (1991)). Each well of a 96-well tissue culture plate was seeded with 150 μl RAW 264.7 cells at 10^6 cells per ml DMEM (Life Technologies, Gaithersburg, Md.) supplemented with 10% heat-treated fetal bovine serum (Life Technologies), 25 mM HEPES (N-2-hydroxyethylpiperazine-N′-2-ethanesulfonic acid; pH 7.3), penicillin (60 U/ml) and streptomycin (60 μg/ml). After overnight incubation at 37° C. in a 6% CO2 incubator, the medium was aspirated and cells washed with 3-changes of endotoxin-free Hank's balanced salt solution (HBSS, Life Technologies) supplemented with 25 mM HEPES (pH 7.3). Control endotoxin (10 ng/ml) and test materials were prepared in HBSS-HEPES. After incubation in a 37° C. water bath for 1 h, 0.2 ml of these solutions was added in triplicate to each well and incubated at 37° C. for 6 h. The supernatants were then collected and stored at −70° C. before the measurement of […] activity. Controls included HBSS-HEPES and test materials in the absence of endotoxin. TNF-α activity of the medium and test materials was below […]. The human serum used in some experiments was a pool from normal donors.
Determination of TNF activity. TNF-α activity in the culture supernatant was determined based on its cytotoxicity for the mouse fibrosarcoma cell line WEHI 164 cells (ATCC). […] The antibody at 1:100 dilution completely eliminated the cytotoxicity in the culture supernatant of the RAW 264.7 cell stimulated by endotoxin and in the mouse sera collected 1 h after intraperitoneal injection of endotoxin.
Briefly, the 96-well tissue culture plates were seeded with 100 μl WEHI164 cells (5×10^4 cells) in RPMI-1640 medium (Life Technologies) containing 10% heat-treated fetal bovine serum, 25 mM HEPES (pH 7.3), penicillin (60 U/ml), streptomycin (60 μg/ml), and actinomycin D (4 μg/ml). After a 2-h incubation at 37° C. in a 6% CO2 incubator, 10 μl twofold serially diluted samples (culture supernatants) or standards (murine recombinant TNF-α, Genzyme) was added to each well, and incubated for 20 h. Cell viability was then determined by the addition of 10 μl MTT (Thiazolyl blue, Sigma) stock solution (5 mg/ml in saline) to each well, and the incubation was allowed to continue for 6 h. 180 μl of acid-isopropanol (containing 40 mM HCl) was added to dissolve the generated dark blue crystals. The plate was read at 570 nm with a reference of 630 nm in a microplate reader. The amount of TNF-α that led to 50% killing of the seeded cells was defined as one unit, equivalent to approximately 15 pg of recombinant TNF-α under the present condition. A standard curve was obtained by incubating known amounts of the recombinant TNF-α with the WEHI cells.

Compound: CSCC[C@H](NC(=O)[C@H](CC(N)=O)NC(=O)[C@H](CCCNC(=N)N)NC(=O)[C@H](CCC(N)=O)NC(=O)[C@H](Cc1c[nH]c2ccccc12)NC(=O)[C@H](CCC(N)=O)NC(=O)[C@H](Cc1ccccc1)NC(=O)[C@H](CS)NC(=O)[C@H](CCCCN)NC(=O)[C@@H](NC(=O)[C@H](C)NC(=O)[C@H](CCC(=O)O)NC(=O)[C@@H]1CCCN1C(=O)[C@H](CCC(N)=O)NC(=O)[C@H](CO)NC(=O)[C@@H](NC(=O)[C@H](C)NC(=O)[C@H](CS)NC(=O)[C@H](Cc1c[nH]c2ccccc12)NC(=O)[C@H](CCC(N)=O)NC(=O)[C@@H](N)C(C)C)C(C)C)[C@@H](C)O)C(=O)N[C@@H](CCCNC(=N)N)C(=O)N[C@@H](CCCCN)C(=O)N[C@H](C(=O)N[C@@H](CCCNC(=N)N)C(=O)NCC(=O)N1CCC[C@H]1C(=O)O)C(C)C [LF-27]
- TNF-α secretion induced by Lipid A (agent 3 μM, endotoxin 10 ng/ml, control 2,386): 3,182 +/− 412 pg/ml
- TNF-α secretion induced by S. abortus LPS (agent 3 μM, endotoxin 10 ng/ml, control 3,969): 3,985 +/− 497 pg/ml
- TNF-α secretion induced by P. aer. LPS (agent 3 μM, endotoxin 10 ng/ml, control 4,813): 4,633 +/− 603 pg/ml
- TNF-α secretion induced by E. coli LPS (agent 3 μM, endotoxin 10 ng/ml, control 4,928): 4,912 +/− 588 pg/ml
- TNF-α secretion induced by N. min. LPS (agent 3 μM, endotoxin 10 ng/ml, control 5,658): 7,306 +/− 1008 pg/ml
- effect on endotoxin-induced TNF-α secretion (equal molar concentration of LF-27 or 10% human serum): no effect
